Source: ChEMBL document CHEMBL1136822, “Synthesis, antiviral activity and pharmacokinetics of P1/P1' substituted 3-aminoindazole cyclic urea HIV protease inhibitors” (Bioorg Med Chem Lett, 2003)

What was measured:
[1] = target: Human immunodeficiency virus type 1 protease (Human immunodeficiency virus 1, UniProt Q72874); assay: Binding affinity against HIV-Protease was determined
[2] = tested on: Human immunodeficiency virus 1; assay: Resistance factor of compound towards HIV-1 was measured as inhibitory concentration of compound required to inhibit viral RNA transcripts accumulation after infection in cells; format: functional
[3] = tested on: Human immunodeficiency virus 1; assay: Inhibitory concentration of compound against HIV abbott mutant virus 25-fold resistant to ritonavir; format: functional
[4] = Pharmacokinetic activity (Cmax) (10 mg/kg) was determined in dog; format: ADME, organism-based, Canis lupus familiaris; design: dose 10 mg/kg; conditions: in vivo
MT2 [5] = assay: Inhibitory concentration of compound against HIV […] mutant in MT2 cells; format: functional; conditions: Homo sapiens
[6] = tested on: Human immunodeficiency virus 1; assay: Inhibitory concentration of compound against HIV HXB2 strain; format: functional
[7] = Effect on increase in RNA IC90 value after HSA (45 mg/mL) and AAG (1 mg/mL) were determined in absence or presence of two plasma proteins (45 mg/mL human serum albumin and 1 mg/mL alpha-1-acid glycoprotein).; format: functional
MT2 [8] = assay: Inhibitory concentration of compound against HIV V82F/[…] mutant in MT2 cells; format: functional; conditions: Homo sapiens
[9] = Oral bioavailability in dog (dose 10 mg/kg); format: ADME, organism-based, Canis lupus familiaris; conditions: in vivo
[10] = 8 hour trough Blood level in dog was measured after administration of compound; format: ADME, organism-based, Canis lupus familiaris; conditions: read-out: C 8 h
[11] = tested on: Human immunodeficiency virus 1; assay: Inhibitory concentration of compound against HIV vertex mutant virus 19-fold resistant to […]; format: functional
Homo sapiens = organism: Homo sapiens; assay: Protein binding adjusted IC90s for the I84V mutant was determined; format: functional
[12] = Half life period (10 mg/kg) was determined in dog; format: ADME, organism-based, Canis lupus familiaris; conditions: in vivo
[13] = Half life period in dog; format: ADME, organism-based, Canis lupus familiaris; conditions: in vivo
[14] = Pharmacokinetic activity (Cmax) in dog; format: ADME, organism-based, Canis lupus familiaris; conditions: in vivo
[15] = tested on: Human immunodeficiency virus 1; assay: Inhibitory concentration of compound against HIV vertex mutant virus 19-fold resistant to amprenavir; format: functional

Cc1ccc(C[C@@H]2[C@H](O)[C@@H](O)[C@@H](Cc3ccc(C)cc3)N(Cc3ccc4[nH]nc(N)c4c3)C(=O)N2Cc2ccccc2)cc1
Ki [1]: 0.047 nM | IC90 [2]: 12 nM | IC90 [3]: 1880 nM | Cmax [4]: 3.6 µM | IC90 (MT2 [5]): 310 nM | IC90 [6]: 17 nM | Fold shift [7]: 16 | IC90 (MT2 [8]): > 1700 nM | bioavailability [9]: 29% | concentration at 8 h [10]: 0.35 µM | IC90 [11]: 24 nM | IC90 (Homo sapiens): 192 nM | half-life [12]: 3.9 h

CCc1ccc(C[C@@H]2[C@H](O)[C@@H](O)[C@@H](Cc3ccc(CC)cc3)N(Cc3ccc4[nH]nc(N)c4c3)C(=O)N2Cc2ccccc2)cc1
Ki [1]: 0.072 nM | IC90 [2]: 19 nM | IC90 [3]: 12600 nM | IC90 (MT2 [5]): 410 nM | IC90 [6]: 81 nM | Fold shift [7]: 13 | IC90 (MT2 [8]): > 1600 nM | IC90 (Homo sapiens): 247 nM

CCCCN1C(=O)N(Cc2ccc3[nH]nc(N)c3c2)[C@H](Cc2ccc(C)cc2)[C@H](O)[C@@H](O)[C@H]1Cc1ccc(C)cc1
Ki [1]: 0.037 nM | half-life [13]: 1.6 h | IC90 [2]: 12 nM | IC90 [3]: 1700 nM | IC90 [6]: 16 nM | Cmax [14]: 1.2 µM | Fold shift [7]: 35 | IC90 (MT2 [8]): 1750 nM | bioavailability [9]: 23% | concentration at 8 h [10]: 0.07 µM | IC90 [11]: 7 nM | IC90 (Homo sapiens): 420 nM

Nc1n[nH]c2ccc(CN3C(=O)N(Cc4ccccc4)[C@H](Cc4ccccc4)[C@H](O)[C@@H](O)[C@H]3Cc3ccccc3)cc12
Cmax [14]: 9.6 µM | bioavailability [9]: 60% | concentration at 8 h [10]: 2.8 µM | half-life [12]: 3.5 h

CCCCN1C(=O)N(Cc2ccc3[nH]nc(N)c3c2)[C@H](Cc2cccc(C)c2)[C@H](O)[C@@H](O)[C@H]1Cc1cccc(C)c1
Ki [1]: 0.045 nM | IC90 [2]: 31 nM | IC90 [3]: 1600 nM | IC90 [6]: 54 nM | Fold shift [7]: 25 | IC90 (MT2 [8]): 1600 nM | IC90 (Homo sapiens): 775 nM

Cc1cccc(C[C@@H]2[C@H](O)[C@@H](O)[C@@H](Cc3cccc(C)c3)N(Cc3ccc4[nH]nc(N)c4c3)C(=O)N2Cc2ccccc2)c1
Ki [1]: 0.062 nM | half-life [13]: 3.9 h | IC90 [2]: 25 nM | IC90 [3]: 1760 nM | Cmax [4]: 3.6 µM | IC90 (MT2 [5]): 104 nM | IC90 [6]: 26 nM | Fold shift [7]: 12 | IC90 (MT2 [8]): 2680 nM | bioavailability [9]: 20% | concentration at 8 h [10]: 0.35 µM | IC90 (Homo sapiens): 300 nM

Nc1[nH]nc2ccc(CN3C(=O)N(Cc4ccccc4)[C@H](Cc4ccccc4)[C@H](O)[C@@H](O)[C@H]3Cc3ccccc3)cc12
IC90 [2]: 62 nM | IC90 [3]: 1520 nM | IC90 (MT2 [5]): 370 nM | IC90 [6]: 92 nM | IC90 (MT2 [8]): 2100 nM | IC90 [15]: 257 nM | IC90 (Homo sapiens): 496 nM

CCCCN1C(=O)N(Cc2ccc3[nH]nc(N)c3c2)[C@H](Cc2ccccc2)[C@H](O)[C@@H](O)[C@H]1Cc1ccccc1
Ki [1]: 0.021 nM | half-life [13]: 7.7 h | IC90 [2]: 56 nM | IC90 [3]: 1470 nM | IC90 (MT2 [5]): 390 nM | IC90 [6]: 69 nM | Cmax [14]: 11.7 µM | Fold shift [7]: 17 | IC90 (MT2 [8]): 1790 nM | bioavailability [9]: 57% | concentration at 8 h [10]: 7.2 µM | IC90 [11]: 87 nM | IC90 (Homo sapiens): 952 nM

Cc1cc(C)cc(C[C@@H]2[C@H](O)[C@@H](O)[C@@H](Cc3cc(C)cc(C)c3)N(Cc3ccc4[nH]nc(N)c4c3)C(=O)N2Cc2ccccc2)c1
Ki [1]: 0.2 nM | IC90 [2]: 50 nM | IC90 [3]: > 7300 nM | IC90 [6]: 100 nM | Fold shift [7]: 7 | IC90 (Homo sapiens): 350 nM

CCCCN1C(=O)N(Cc2ccc3[nH]nc(N)c3c2)[C@H](Cc2ccc(CC)cc2)[C@H](O)[C@@H](O)[C@H]1Cc1ccc(CC)cc1
Ki [1]: 0.094 nM | IC90 [2]: 10 nM | IC90 [3]: 4030 nM | IC90 (MT2 [5]): 260 nM | IC90 [6]: 22 nM | Fold shift [7]: 22 | IC90 (MT2 [8]): > 1800 nM | IC90 (Homo sapiens): 220 nM

CCCCN1C(=O)N(Cc2ccc3[nH]nc(N)c3c2)[C@H](Cc2cc(C)cc(C)c2)[C@H](O)[C@@H](O)[C@H]1Cc1cc(C)cc(C)c1
Ki [1]: 0.19 nM | IC90 [2]: 66 nM | IC90 [3]: 7540 nM | IC90 [6]: 56 nM
